The target of experiment [1] is T1, Bile acid receptor (Homo sapiens) (UniProt Q96RI1).
T1 sequence (whole entry): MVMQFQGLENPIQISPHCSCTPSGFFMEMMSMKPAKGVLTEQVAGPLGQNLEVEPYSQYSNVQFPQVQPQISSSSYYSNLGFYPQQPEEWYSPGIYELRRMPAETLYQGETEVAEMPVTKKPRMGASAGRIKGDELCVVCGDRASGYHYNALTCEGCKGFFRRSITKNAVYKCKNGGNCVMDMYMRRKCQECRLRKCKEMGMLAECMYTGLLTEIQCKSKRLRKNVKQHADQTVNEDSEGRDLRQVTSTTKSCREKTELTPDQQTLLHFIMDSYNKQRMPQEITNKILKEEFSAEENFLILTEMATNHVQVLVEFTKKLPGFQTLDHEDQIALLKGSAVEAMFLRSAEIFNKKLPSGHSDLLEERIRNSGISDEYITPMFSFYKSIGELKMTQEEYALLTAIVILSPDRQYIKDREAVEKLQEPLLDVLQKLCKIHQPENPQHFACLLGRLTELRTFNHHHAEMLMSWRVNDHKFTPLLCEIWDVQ
The experiment in a line: Agonist activity at FXR (unknown origin) at < 20 uM.

In experiment [2] the target is T2, Retinoic acid receptor RXR-beta (Homo sapiens) (UniProt P28702).
T2 sequence (whole entry): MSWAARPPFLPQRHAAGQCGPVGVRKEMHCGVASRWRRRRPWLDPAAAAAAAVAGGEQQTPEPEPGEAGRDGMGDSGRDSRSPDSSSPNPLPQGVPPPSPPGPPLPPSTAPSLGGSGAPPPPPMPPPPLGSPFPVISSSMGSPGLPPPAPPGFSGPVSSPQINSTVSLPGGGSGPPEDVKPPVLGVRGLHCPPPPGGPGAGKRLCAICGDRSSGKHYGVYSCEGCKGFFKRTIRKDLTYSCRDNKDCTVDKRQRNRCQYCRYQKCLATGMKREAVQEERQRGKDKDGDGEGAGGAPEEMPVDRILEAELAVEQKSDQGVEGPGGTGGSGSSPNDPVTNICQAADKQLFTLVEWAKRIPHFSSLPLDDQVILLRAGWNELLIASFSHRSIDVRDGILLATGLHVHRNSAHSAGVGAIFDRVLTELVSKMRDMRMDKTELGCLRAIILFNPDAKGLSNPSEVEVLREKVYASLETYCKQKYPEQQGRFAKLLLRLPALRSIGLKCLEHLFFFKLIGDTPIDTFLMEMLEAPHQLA
The experiment in a line: Agonist activity at RXRbeta (unknown origin) at < 20 uM.

Experiment [3] has as its target T3, Peroxisome proliferator-activated receptor delta (Homo sapiens) (UniProt Q03181).
T3 sequence (whole entry): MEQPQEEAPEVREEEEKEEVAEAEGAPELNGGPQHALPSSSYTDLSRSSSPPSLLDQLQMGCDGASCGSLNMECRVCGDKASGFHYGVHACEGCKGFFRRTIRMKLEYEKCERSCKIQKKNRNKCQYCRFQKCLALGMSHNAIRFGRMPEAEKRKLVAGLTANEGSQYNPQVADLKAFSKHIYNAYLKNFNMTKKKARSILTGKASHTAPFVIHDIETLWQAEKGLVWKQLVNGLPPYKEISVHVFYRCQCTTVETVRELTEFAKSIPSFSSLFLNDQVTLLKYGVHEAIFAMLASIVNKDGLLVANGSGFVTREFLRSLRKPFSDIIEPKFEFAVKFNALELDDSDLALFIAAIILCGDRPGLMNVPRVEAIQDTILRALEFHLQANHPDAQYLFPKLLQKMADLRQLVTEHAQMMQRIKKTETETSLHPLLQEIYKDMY
Nature of the experiment: Agonist activity at N-terminal Gal4 fused human PPARdelta LBD transfected in HEK293 cells after 24 hrs by luciferase reporter gene assay relative to GW501516. Type of experiment: cell-based.

The target in experiment [4] is T4, Peroxisome proliferator-activated receptor gamma (Homo sapiens) (UniProt P37231).
T4 sequence (whole entry): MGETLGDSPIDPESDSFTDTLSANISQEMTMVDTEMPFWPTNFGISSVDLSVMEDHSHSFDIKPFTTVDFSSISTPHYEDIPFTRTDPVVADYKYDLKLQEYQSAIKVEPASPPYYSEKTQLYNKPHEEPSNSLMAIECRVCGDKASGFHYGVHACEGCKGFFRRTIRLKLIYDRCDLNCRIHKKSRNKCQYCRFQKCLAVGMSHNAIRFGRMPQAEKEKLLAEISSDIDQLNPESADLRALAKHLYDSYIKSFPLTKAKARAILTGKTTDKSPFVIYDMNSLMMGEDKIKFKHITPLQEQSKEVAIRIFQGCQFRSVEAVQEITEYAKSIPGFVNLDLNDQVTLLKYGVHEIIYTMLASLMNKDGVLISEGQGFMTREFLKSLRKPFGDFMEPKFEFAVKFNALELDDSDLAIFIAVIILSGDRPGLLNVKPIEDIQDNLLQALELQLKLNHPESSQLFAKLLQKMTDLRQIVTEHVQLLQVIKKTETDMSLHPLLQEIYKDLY
The experiment in a line: Agonist activity at N-terminal Gal4 fused human PPARgamma LBD transfected in HEK293 cells at < 10 uM after 24 hrs by luciferase reporter gene assay. Type of experiment: cell-based.

Active and inactive are the calls of the source. The calls are words filed in the database; no cut-off is given here.

`CC(=O)NC(C)c1nc(-c2ccc(Oc3ccc(OCc4ccccc4)cc3)cc2)no1` (centres undefined): the result in experiment [1], in experiment [2] and in experiment [4] was inactive. In experiment [3], this molecule showed an Emax of 5 to 10%.
